From PubChem BioAssay AID248 (DTP/NCI, 2004)
Values joined by “and” are separate entries in the source; they are usually repeats but may differ in a detail not shown here. Equal values may be shown once. Inconclusive results and toxic doses are left out. No stated cut-off is given here; in the data, active means T/C of 150% or more; inactive means T/C below 125%.

Test system: L1210 leukemia ip in BDF1 mice, survival T/C
Assay: NCI In Vivo Anticancer Drug Screen. Data for tumor model L1210 Leukemia (intraperitoneal) in B6D2F1 (BDF1) mice
Conditions: endpoint: mean survival time, higher = longer survival
Method in brief: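 Transplantable tumor model; survival measured in treated vs vehicle control mice. Value = treated/control.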

[1] = dose: 100.0 mg/kg/injection, schedule: Q01DX001 (ip), vehicle: carboxymethylcellulose (CMC)
[2] = dose: 200.0 mg/kg/injection, schedule: Q01DX001 (ip), vehicle: carboxymethylcellulose (CMC)
[3] = dose: 12.5 mg/kg/injection, schedule: Q01DX009 (ip), vehicle: saline with Tween-80
[4] = dose: 100.0 mg/kg/injection, schedule: Q01DX009 (ip), vehicle: Klucel (hydroxypropylcellulose) (HPC)
[5] = dose: 200.0 mg/kg/injection, schedule: Q01DX009 (ip), vehicle: Klucel (hydroxypropylcellulose) (HPC)
[6] = dose: 400.0 mg/kg/injection, schedule: Q01DX009 (ip), vehicle: Klucel (hydroxypropylcellulose) (HPC)
[7] = dose: 75.0 mg/kg/injection, schedule: Q01DX001 (ip), vehicle: saline
[8] = dose: 150.0 mg/kg/injection, schedule: Q01DX001 (ip), vehicle: saline
[9] = dose: 100.0 mg/kg/injection, schedule: Q01DX009 (ip), vehicle: saline with Tween-80
[10] = dose: 200.0 mg/kg/injection, schedule: Q01DX009 (ip), vehicle: saline with Tween-80
[11] = dose: 100.0 mg/kg/injection, schedule: Q01DX001 (ip), vehicle: saline
[12] = dose: 200.0 mg/kg/injection, schedule: Q01DX001 (ip), vehicle: saline
[13] = dose: 400.0 mg/kg/injection, schedule: Q01DX001 (ip), vehicle: saline

Measured: T/C

CCOC(=O)N/N=C\C(C)=N\NC(=O)OCC
inactive: dose: 15.0 mg/kg/injection, schedule: Q01DX Z (ip), vehicle: carboxymethylcellulose (CMC) 105 % of control | dose: 30.0 mg/kg/injection, schedule: Q01DX Z (ip), vehicle: carboxymethylcellulose (CMC) 98 % of control | dose: 60.0 mg/kg/injection, schedule: Q01DX Z (ip), vehicle: carboxymethylcellulose (CMC) 97 % of control and 105 % of control | dose: 120.0 mg/kg/injection, schedule: Q01DX Z (ip), vehicle: carboxymethylcellulose (CMC) 94 % of control and 97 % of control | dose: 240.0 mg/kg/injection, schedule: Q01DX Z (ip), vehicle: carboxymethylcellulose (CMC) 96 % of control | dose: 480.0 mg/kg/injection, schedule: Q01DX Z (ip), vehicle: carboxymethylcellulose (CMC) 87 % of control

O=C1OC(c2ccccc2)=N/C1=C\c1ccc2c(c1)OCO2
inactive: [1] 95 % of control | [2] 98 % of control

O=[n+]1ccn2cc3ccccc3cc2c1
inactive: [3] 105 % of control

CCOC(=O)c1scnc1C
inactive: [4] 89 % of control | dose: 100.0 mg/kg/injection, schedule: Q04DX003 (ip), vehicle: Klucel (hydroxypropylcellulose) (HPC) 95 % of control | [5] 95 % of control | dose: 200.0 mg/kg/injection, schedule: Q04DX003 (ip), vehicle: Klucel (hydroxypropylcellulose) (HPC) 95 % of control | [6] 92 % of control | dose: 400.0 mg/kg/injection, schedule: Q04DX003 (ip), vehicle: Klucel (hydroxypropylcellulose) (HPC) 95 % of control

CCCCCCC1N(Cc2ccccc2N(C)C)CCCN1Cc1ccccc1N(C)C
inactive: [7] 94 % of control | [8] 94 % of control | dose: 300.0 mg/kg/injection, schedule: Q01DX001 (ip), vehicle: saline 89 % of control

OC1CCC(c2ccccc2)C1 (stereo unspecified)
inactive: dose: 75.0 mg/kg/injection, schedule: Q01DX001 (ip), vehicle: other 98 % of control | dose: 150.0 mg/kg/injection, schedule: Q01DX001 (ip), vehicle: other 97 % of control | dose: 300.0 mg/kg/injection, schedule: Q01DX001 (ip), vehicle: other 106 % of control

N#Cc1ccc(-c2nc3ncnc(N)c3[nH]2)cc1
inactive: dose: 100.0 mg/kg/injection, schedule: Q04DX002 (ip), vehicle: Klucel (hydroxypropylcellulose) (HPC) 97 % of control | dose: 200.0 mg/kg/injection, schedule: Q04DX002 (ip), vehicle: Klucel (hydroxypropylcellulose) (HPC) 105 % of control | dose: 400.0 mg/kg/injection, schedule: Q04DX002 (ip), vehicle: Klucel (hydroxypropylcellulose) (HPC) 101 % of control

NCCSC1(O)C(=O)c2ccccc2C1=O
inactive: dose: 37.5 mg/kg/injection, schedule: Q04DX003 (ip), vehicle: saline 97 % of control | [7] 104 % of control | dose: 75.0 mg/kg/injection, schedule: Q04DX003 (ip), vehicle: saline 116 % of control | [8] 110 % of control | dose: 150.0 mg/kg/injection, schedule: Q04DX003 (ip), vehicle: saline 111 % of control

NC1=NC(=O)/C(=C/c2ccccc2)S1
inactive: [1] 100 % of control | [9] 90 % of control | [2] 89 % of control | [10] 91 % of control | dose: 400.0 mg/kg/injection, schedule: Q01DX001 (ip), vehicle: carboxymethylcellulose (CMC) 86 % of control

Cc1ccc(/C(=N\N=C(N)N)c2ccccc2)cc1
inactive: dose: 15.0 mg/kg/injection, schedule: Q01DX Z (ip), vehicle: saline 108 % of control | dose: 30.0 mg/kg/injection, schedule: Q01DX Z (ip), vehicle: saline 110 % of control | dose: 30.0 mg/kg/injection, schedule: Q01DX Z (oral), vehicle: other 105 % of control | dose: 60.0 mg/kg/injection, schedule: Q01DX Z (ip), vehicle: saline 109 % of control | dose: 60.0 mg/kg/injection, schedule: Q01DX Z (oral), vehicle: other 95 % of control

CC(=O)Nc1ccc(Cc2ccc(NC(C)=O)cc2N)c(N)c1
inactive: dose: 50.0 mg/kg/injection, schedule: Q01DX001 (ip), vehicle: saline 96 % of control | [11] 98 % of control | [12] 104 % of control | [13] 92 % of control

CCOP(=O)(OCC)OCCOCCOP(=O)(OCC)OCC
inactive: dose: 8.8 mg/kg/injection, schedule: Q01DX Z (ip), vehicle: saline 98 % of control | dose: 13.3 mg/kg/injection, schedule: Q01DX Z (ip), vehicle: saline 110 % of control | dose: 20.0 mg/kg/injection, schedule: Q01DX Z (ip), vehicle: saline 96 % of control

C=C1C=C(C)N(C(=O)c2ccc(Cl)cc2)CCN1C(=O)c1ccc(Cl)cc1
inactive: [4] 100 % of control | [5] 90 % of control | [6] 92 % of control

CSc1ccc(C(=O)C(CO)NC(C)=O)cc1 (stereo unspecified)
inactive: [11] 110 % of control | [12] 98 % of control | [13] 97 % of control

O=[N+]([O-])c1cccc(S(=O)(=O)Nc2cccc(C(F)(F)F)c2)c1
inactive: dose: 100.0 mg/kg/injection, schedule: Q01DX009 (ip), vehicle: saline 96 % of control | dose: 200.0 mg/kg/injection, schedule: Q01DX009 (ip), vehicle: saline 104 % of control | dose: 400.0 mg/kg/injection, schedule: Q01DX009 (ip), vehicle: saline 96 % of control

CCOC(/C=C/c1ccccc1)OCC
inactive: dose: 100.0 mg/kg/injection, schedule: Q04DX003 (ip), vehicle: saline 93 % of control | dose: 200.0 mg/kg/injection, schedule: Q04DX003 (ip), vehicle: saline 93 % of control | dose: 400.0 mg/kg/injection, schedule: Q04DX003 (ip), vehicle: saline 98 % of control

[Cl][Hg][c]1ccccc1N=Nc1ccccc1
inactive: dose: 3.0 mg/kg/injection, schedule: Q01DX009 (ip), vehicle: saline with Tween-80 90 % of control | dose: 6.0 mg/kg/injection, schedule: Q01DX009 (ip), vehicle: saline with Tween-80 101 % of control | dose: 12.0 mg/kg/injection, schedule: Q01DX009 (ip), vehicle: saline with Tween-80 98 % of control | [3] 100 % of control

OC(c1ccccc1)(c1ccccc1)c1ccsc1
inactive: dose: 50.0 mg/kg/injection, schedule: Q01DX009 (ip), vehicle: saline with Tween-80 86 % of control | [9] 86 % of control

Cc1ccccc1N=Nc1c(O)n(-c2ccccc2C)c(=S)n(-c2ccccc2)c1=O
inactive: dose: 75.0 mg/kg/injection, schedule: Q01DX003 (ip), vehicle: Klucel (hydroxypropylcellulose) (HPC) 88 % of control | dose: 150.0 mg/kg/injection, schedule: Q01DX003 (ip), vehicle: Klucel (hydroxypropylcellulose) (HPC) 104 % of control | dose: 300.0 mg/kg/injection, schedule: Q01DX003 (ip), vehicle: Klucel (hydroxypropylcellulose) (HPC) 86 % of control

C#C[C@]1(O)CC[C@H]2[C@@H]3CCc4cc(O)ccc4[C@H]3CC[C@@]21C
inactive: dose: 62.5 mg/kg/injection, schedule: Q04DX003 (sc), vehicle: steriod suspending solution 96 % of control | dose: 125.0 mg/kg/injection, schedule: Q04DX003 (sc), vehicle: steriod suspending solution 100 % of control | dose: 250.0 mg/kg/injection, schedule: Q04DX003 (sc), vehicle: steriod suspending solution 97 % of control | dose: 500.0 mg/kg/injection, schedule: Q04DX003 (sc), vehicle: steriod suspending solution 99 % of control

COc1cc(N=Nc2ccccc2C(=O)O)ccc1O
inactive: [9] 96 % of control | dose: 100.0 mg/kg/injection, schedule: Q04DX003 (ip), vehicle: saline with Tween-80 96 % of control | [10] 104 % of control | dose: 200.0 mg/kg/injection, schedule: Q04DX003 (ip), vehicle: saline with Tween-80 101 % of control | dose: 400.0 mg/kg/injection, schedule: Q04DX003 (ip), vehicle: saline with Tween-80 101 % of control
